From patent EP0091528A1, “-N-(1-propyl-2-pyrrolidylmethyl)-2-methoxy-5-sulfamoyl benzamide and its use against some sorts of depression” (priority 1982, dated 1983) come the findings set out here.

“And” between values parts separate entries of the source, which are not always exact repeats. Identical values can stand only once. Like-named read-outs stand apart in the source and are kept apart here.

A short description of series [1]: Acute toxicity, LD50 in mice by different routes. Format: in vivo. The following applies: souris; for LD50: mouse, in vivo, read-out: DL 50 (the source's name). The source says:
Au plan toxicologique, la détermination des DL 50 des deux produits administrés chez la souris par différentes voies ne révèle aucune différence majeure, le Sulpiride étant toutefois un peu moins toxique par voie buccale.

The subject of series [2] is stéréotypies induites chez le Rat par la d-amphétamine (agoniste indirect). As to the kind of experiment: Potentiation of d-amphetamine-induced stereotypies in the rat. Conditions: for DE50 vis-à-vis de la d-amphétamine: Bliss method, two trials not named. In kind it is in vivo. On the procedure: (§1) A cet effet, le composé de l'invention a été étudié vis-à-vis de la potentialisation des stéréotypies induites chez le Rat par deux agonistes dopaminergiques, l'apomorphine (agoniste direct) et la d-amphétamine (agoniste indirect).
(§2) Dans les deux essais, la dose d'agoniste est choisie telle qu'elle n'entraîne pas, chez tous les animaux d'expérience, l'apparition de mouvements stéréotypés de la sphère buccale de type léchage ou mâchonnement (Apomorphine : 0,250 mg.kg^-1 S.C. - d-amphétamine : 3 mg.kg^-1 I.P.).
(§3) L'observation de ce comportement stéréotypé chez un plus grand nombre d'animaux consécutif à l'administration de doses croissantes du composé de l'invention, injectées par voie I.P. 30 minutes avant l'agoniste, traduit un renforcement dopaminergique.
(§4) Les DE50 déterminées par la méthode de Bliss assortie des limites de confiance à 95% sont de 10,8 et 8,9 mg.kg.^-1 I.P. vis-à-vis de l'apomorphine et 1,4 et 2,6 mg.kg^-1 vis-à-vis de la d-amphétamine.

Series [3] deals with stéréotypies induites chez le Rat par l'apomorphine (agoniste direct). As to the kind of experiment: Potentiation of apomorphine-induced stereotypies in the rat. In kind it is in vivo. The following applies: for DE50 vis-à-vis de l'apomorphine: Bliss method, two trials not named. On the procedure: as §1, §2, §3, §4
The nature of series [4]: Double-blind comparative clinical trial versus imipramine in depression. The following applies: for tolérance tant clinique que biologique: 450 mg par jour (compound), 150 mg par jour (IMIPRAMINE). In kind it is in vivo, humaine. The procedure: En conséquence, un essai clinique comparatif en double aveugle a été mené mettant en oeuvre le composé selon l'invention et l'IMIPRAMINE, produit de référence indiscutable dans le traitement de certains états dépressifs.
Les posologies retenues ont été fixées : • . pour l'IMIPRAMINE en fonction des données acquises et de la posologie préconisée par le fabricant, c'est-à-dire : 150 mg par jour, dose atteinte progressivement en 5 jours; • . pour le composé selon l'invention, à partir des données recueillies par les études antérieures, c'est-à-dire : 450 mg par jour. Bien que cette posologie puisse, du fait de l'excellente tolérance du produit, être administrée d'emblée, pour se plier aux règles du double-aveugle et respecter le mode d'administration optimum pour l'IMIPRAMINE, cette dose n'a également été atteinte que le Sème jour après deux paliers successifs de : 150 et 300 mg par jour. Toutefois d'autres études permettent de penser que des doses plus faibles du composé selon l'invention aboutissent à des résultats similaires.
Ces doses ont été administrées pendant 28 jours consécutifs en mono- thérapie, dans toute la mesure du possible.
Pouvaient entrer dans l'étude, les sujets présentant une dépression authentique c'est-à-dire atteignant le score de 36 à la version simplifiée à 17 items de l'échelle de Hamilton.
La comparaison entre les deux produits a porté sur l'efficacité thérapeutique et sur la tolérance, 34 cas ayant été analysés. Pour établir cette comparaison, le protocole prévoyait trois bilans : • . avant le début du traitement (JO) • . au 10ème jour (J10) • . au 28ème jour (J28)
Chacun de ces bilans comportait obligatoirement : • . une B.P.R.S. • une échelle de Hamilton (26 items) • une appréciation par l'expert de 1"'intensité du syndrome dépressif" • une recherche des troubles somatiques associés à l'état dépressif.
De plus, à JO et à J28, il a été pratiqué une auto-appréciation de son état par le malade (S.D.S.) et un bilan biologique standard.
Enfin, en fin de traitement, il a été convenu d'exprimer une impression subjective globale sur l'intérêt du traitement pour chaque observation.

For series [5], the system named is récepteurs dopamine centraux. As to the kind of experiment: Inhibition of apomorphine-induced rearing (climbing) movement in mice. Format: in vivo. Conditions: souris, I.P., apomorphine 1 mg/kg S.C. On the procedure:
2) - Les deux composés ne se distinguent pas non plus quand leur propriété antagoniste dopaminergique centrale est jugée par exemple d'après l'inhibition qu'ils provoquent du mouvement de redressement induit chez la souris par l'apomorphine (1 mg/kg S.C.).
Les doses inhibitrices 50 de ce mouvement sont voisines pour les deux composés, respectivement : […]

Series [6] relates to récepteurs dopamine du centre du vomissement. As to the kind of experiment: Antiemetic power in the dog (apomorphine-induced emesis). In kind it is in vivo. The following applies: vomiting induced by apomorphine. The source says: D'une façon générale, ces dérivés benzamides interfèrent dans les mécanismes dopaminergiques du système nerveux. Leurs effets bloquants sur les récepteurs dopamine centraux leur confèrent des propriétés neuroleptiques. Leur effet bloquant sur les récepteurs dopamine du centre du vomissement se traduit par un puissant antagonisme à l'égard de l'effet émétisant de certains agonistes dopaminergiques, tels que l'apomorphine et les alcaloïdes de l'ergot de seigle.
Au plan pharmacologique, les interférences des deux composés dans le système dopamine ont été comparées par différents tests adaptés à la mise en évidence des effets antagonistes et agonistes. Il en résulte que : • 1) - le composé selon l'invention et le Sulpiride sont de très puissants antagonistes dans le test de l'emesis chez le chien où les vomissements sont provoqués par l'agoniste apomorphine.
Les valeurs des DE 50 montrent que les activités des deux composés sont équivalentes.

Setting [7] is: Essai I, 2 mg.kg^-1 I.P. 30 min before d-Amphétamine 3 mg.kg^-1 I.P.
The mark [8] stands for this setting: Essai I, 4 mg.kg^-1 I.P. 30 min before d-Amphétamine 3 mg.kg^-1 I.P.
[9] abbreviates: Essai I, 8 mg.kg^-1 I.P. 30 min before d-Amphétamine 3 mg.kg^-1 I.P.
Setting [10] is: Essai II, 1 mg.kg^-1 I.P. 30 min before d-Amphétamine 3 mg.kg^-1 I.P.
[11] abbreviates: Essai II, 4 mg.kg^-1 I.P. 30 min before d-Amphétamine 3 mg.kg^-1 I.P.
[12] abbreviates: Essai II, 16 mg.kg^-1 I.P. 30 min before d-Amphétamine 3 mg.kg^-1 I.P.
Where [13] appears, read: Essai I, 4 mg.kg^-1 I.P. 30 min before Apomorphine 0,250 mg.kg^-1 S.C.
The mark [14] stands for this setting: Essai I, 8 mg.kg^-1 I.P. 30 min before Apomorphine 0,250 mg.kg^-1 S.C.
Setting [15] is: Essai I, 16 mg.kg^-1 I.P. 30 min before Apomorphine 0,250 mg.kg^-1 S.C.
[16] abbreviates: Essai II, 4 mg.kg^-1 I.P. 30 min before Apomorphine 0,250 mg.kg^-1 S.C.
Where [17] appears, read: Essai II, 8 mg.kg^-1 I.P. 30 min before Apomorphine 0,250 mg.kg^-1 S.C.
The mark [18] stands for this setting: Essai II, 16 mg.kg^-1 I.P. 30 min before Apomorphine 0,250 mg.kg^-1 S.C.

For “N-(1-propyl-2-pyrrolidylméthyl)-2-méthoxy-5-sulfamoyl benzamide [Composé selon l'invention]”, the “DL 50” value in series [1] (I.P.) was 181 to 203 mg/kg; in series [1] (I.V.), 51,7-52,6 mg/kg; in series [1] (P.O.) it was 1411 to 1423 mg/kg; in series [1] (S.C.), 337 to 363 mg/kg. In addition, in series [2] (listed as composé de l'invention), the “DE50 vis-à-vis de la d-amphétamine” value was 1,4 mg.kg^-1 and 2,6 mg.kg^-1. The “% d'activité” value in series [2] (setting [7]) was determined as 38%; in series [2] (setting [8]), 69%; in series [2] (setting [9]), 88%; in series [2] (setting [10]), 38%; in series [2] (setting [11]) it was 81%; in series [2] (setting [12]), 94%. For the same compound, the “% d'activité” value in series [3] (setting [13]) is given as 23%; in series [3] (setting [14]) it was 46%; in series [3] (setting [15]), 69%; in series [3] (setting [16]), 7%; in series [3] (setting [17]) it was 33%; in series [3] (setting [18]), 67%. Moreover, the “Nombre d'animaux positifs/16” value was 6 in series [2] (setting [7]); 11 in series [2] (setting [8]); 14 in series [2] (setting [9]); 6 in series [2] (setting [10]); 13 in series [2] (setting [11]); 15 in series [2] (setting [12]). Also, the “Nombre d'animaux positifs/16” value in series [3] (setting [13]) was 6; in series [3] (setting [14]), 9; in series [3] (setting [15]), 12; in series [3] (setting [16]) it was 2; in series [3] (setting [17]), 6; in series [3] (setting [18]), 11. Moreover, in series [3] (I.P., listed as composé de l'invention), the “DE50 vis-à-vis de l'apomorphine” value was 10,8 mg.kg^-1 and 8,9 mg.kg^-1. Further, the “tolérance tant clinique que biologique” value in series [4] (28 days) is “moindre fréquence de l'apparition ou de l'aggravation d'une symptomatologie somatique”. Besides, the efficacité entry in series [4] (compared with IMIPRAMINE 150 mg par jour, compound 450 mg par jour, 28 days) is “au moins égale à celle de l'IMIPRAMINE”. In series [4] (compared with IMIPRAMINE, J10 versus J28), the “rapidité d'action sur l'état dépressif” value was “agit plus rapidement sur l'état dépressif que l'IMIPRAMINE”. In series [5], the “doses inhibitrices 50 du mouvement de redressement” value was found to be 32 mg/kg I.P. The “Pouvoir antiémétique chez le chien DE 50 S.C.” value in series [6] is on record as 4,1 γ/kg.
Regarding `CN(C)CCCN1c2ccccc2CCc2ccccc21` [IMIPRAMINE, reference compound], the “tolérance tant clinique que biologique” value in series [4] (28 days) was “troubles de la série anticholinergique nettement plus importants et plus sévères”.
`CCN1CCCC1CNC(=O)c1cc(S(N)(=O)=O)ccc1OC` (stereo not shown) [Sulpiride, N-(1-éthyl-2-pyrrolidinyl-méthyl)-2-méthoxy-5-sulfamoyl benzamide, reference compound]: the LD50 was 210 mg/kg in series [1] (ip, I.P.); 43.5 to 44 mg/kg in series [1] (iv, I.V.); 1800 to 2890 mg/kg in series [1] (po, P.O.); 372 mg/kg in series [1] (sc, S.C.). Also, the “DE50 vis-à-vis de la d-amphétamine” value in series [2] is reported as “inactif”. Further, the “% d'activité” value in series [2] (setting [7]) came to 6%; in series [2] (setting [8]) it was 13%; in series [2] (setting [9]), 6%; in series [3] (setting [13]), 15%; in series [3] (setting [14]), 31%; in series [3] (setting [15]) it was 15%. Further, the “Nombre d'animaux positifs/16” value in series [2] (setting [7]) worked out at 1; in series [2] (setting [8]), 2; in series [2] (setting [9]) it was 1; in series [3] (setting [13]) it was 5; in series [3] (setting [14]), 7; in series [3] (setting [15]), 5. The “DE50 mg.kg^-1 I.P. base” value is “inactif” in series [2] (Essai I, I.P., base, d-Amphétamine 3 mg.kg^-1 I.P., 95% confidence limits in brackets) and “inactif” in series [3] (Essai I, I.P., base, Apomorphine 0,250 mg.kg^-1 S.C., 95% confidence limits in brackets). Also, the “DE50 vis-à-vis de l'apomorphine” value in series [3] (I.P.) was “inactif”. Also, the “doses inhibitrices 50 du mouvement de redressement” value in series [5] came out at 22 mg/kg I.P. Also, the “Pouvoir antiémétique chez le chien DE 50 S.C.” value in series [6] is on record as 3,5-4,8 γ/kg.
